Measurements as given in article PMC4876117, “Functional Dissection of the Bipartite Active Site of the Class I Coenzyme A (CoA)-Transferase Succinyl-CoA:Acetate CoA-Transferase” (Frontiers in Chemistry, 2016).

Experiments:
AarC (AarCH6) [1] = target: T1, AarC (AarCH6) (Acetobacter aceti, UniProt B3EY95); experiment: X-ray crystallography (co-crystal); assay type: binding; conditions: sodium citrate, imidazole pH 8.2, 22 °C
T1 construct: C-terminal hexahistidine tag kept, plasmid pJK385 (N347A: pJK524), expressed in E. coli C41(DE3) pREP4-groESL, homodimer

AarC (AarCH6) [2] = target: T2, AarC (AarCH6) (Acetobacter aceti, UniProt B3EY95, N347A); experiment: X-ray crystallography (co-crystal); assay type: binding; conditions: 10 mM CoA, sodium citrate, imidazole pH 8.2, 22 °C; 2.13 Å; active site
T2 construct: C-terminal hexahistidine tag kept, plasmid pJK385 (N347A: pJK524), expressed in E. coli C41(DE3) pREP4-groESL, homodimer
T2 sequence (B3EY95 whole entry N347A): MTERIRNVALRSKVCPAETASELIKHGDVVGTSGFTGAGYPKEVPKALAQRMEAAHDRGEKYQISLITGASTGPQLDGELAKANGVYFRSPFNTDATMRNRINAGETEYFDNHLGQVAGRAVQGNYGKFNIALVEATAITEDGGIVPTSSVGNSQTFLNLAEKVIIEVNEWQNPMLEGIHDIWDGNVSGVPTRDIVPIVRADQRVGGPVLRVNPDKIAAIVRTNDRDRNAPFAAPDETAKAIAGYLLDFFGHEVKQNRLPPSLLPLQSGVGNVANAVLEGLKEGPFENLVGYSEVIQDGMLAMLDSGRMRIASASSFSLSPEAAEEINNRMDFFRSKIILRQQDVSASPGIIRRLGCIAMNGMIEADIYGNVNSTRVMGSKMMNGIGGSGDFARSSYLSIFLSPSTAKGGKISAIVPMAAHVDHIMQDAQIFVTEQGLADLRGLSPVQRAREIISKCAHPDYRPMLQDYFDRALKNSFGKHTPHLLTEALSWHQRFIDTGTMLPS

## CCCNC(=O)CCNC(=O)[C@H](O)C(C)(C)COP(=O)(O)OP(=O)(O)OC[C@H]1O[C@@H](n2cnc3c(N)ncnc32)[C@H](O)[C@@H]1OP(=O)(O)O [2a, 3′-phosphoadenosine 5′-(O-(N-propyl-R-pantothenamide))pyrophosphate]
AarC (AarCH6) [1]; 1-3 mM 2a, 1.66 Å, active site, 5dw6 is the complex with added acetate (1.55 Å)
  X-ray crystallography (co-crystal): The AarC•2a complex (PDB entry 5dw5) contained three chloride ions

## CC(C)(COP(=O)(O)OP(=O)(O)OC[C@H]1O[C@@H](n2cnc3c(N)ncnc32)[C@H](O)[C@@H]1OP(=O)(O)O)[C@@H](O)C(=O)NCCC(=O)NCCS [CoA]
AarC (AarCH6) [2]
  X-ray crystallography (co-crystal): The B subunits of AarC-N347A (PDB entry 5ddk, white carbon atoms)

## CC(=O)O [acetate]
AarC (AarCH6) [1]; 1-50 mM sodium acetate, 1.62 Å, three sites per subunit, the first near the active site, also in 5dw6 with 2a
  X-ray crystallography (co-crystal): The final model contained three acetate binding sites in each subunit
